Reference: US20060110790A1, “Expression system for large functional proteins” (priority 2002, published 2006)

Target: T1, ABCR K939M, K1978M and K939M/K1978M mutants (Homo sapiens, UniProt P78363, K1978M/K969M)
T1 construct: made in house
Assay: ATPase activity of Walker A lysine-to-methionine mutants
Assay type: biochemical
Conditions: 50 μM all-trans retinal
Method: FIG. 4. Lysine to methionine Walker A mutations in ABCR abolish ATP hydrolysis but not ATP binding. A. ATPase activity was measured in the absence (white bars) or presence of 50 μM all-trans retinal (grey bars). WT, wild-type; K969M in NBD1; K1978M in NBD2; MM, K969M/K1978M double mutant; NCM, N-half co-expressed with C-half containing a K1978M mutation. B. ATP photoaffinity labeling was carried out by irradiating membranes from COS-1 cells expressing wild-type (WT), K969M, K1978M, or K969M/K1978M double mutant (MM) with 3 μM 8-azido-[α-^32P]ATp. The labeled protein was isolated with Rim3F4-Sepharose and separated on SDS gels. Left panel: gel stained with Coomassie blue. Right panel: corresponding ^32P labeling obtained with a phosphorimager. All mutant proteins were labeled with 8-azido-[α-^32P]ATP, but the double mutant bound less nucleotide.
ATPase activity was measured as described previously (Ahn, J., Wong, J. T., and Molday, R. S. (2000) J Biol Chem 275(27), 20399-405) using 50 μM [α^32P]ATP and thin layer chromatography. The all-trans retinal concentration was determined spectrophotometrically (λ383 nm=42.88 mM^−1 cm^−1). Protein concentration was estimated from the eluate before reconstitution by laser densitometry of Coomassie blue stained gels using bovine serum albumin as a standard. […]

T1 sequence (P78363 whole entry K969M/K1978M): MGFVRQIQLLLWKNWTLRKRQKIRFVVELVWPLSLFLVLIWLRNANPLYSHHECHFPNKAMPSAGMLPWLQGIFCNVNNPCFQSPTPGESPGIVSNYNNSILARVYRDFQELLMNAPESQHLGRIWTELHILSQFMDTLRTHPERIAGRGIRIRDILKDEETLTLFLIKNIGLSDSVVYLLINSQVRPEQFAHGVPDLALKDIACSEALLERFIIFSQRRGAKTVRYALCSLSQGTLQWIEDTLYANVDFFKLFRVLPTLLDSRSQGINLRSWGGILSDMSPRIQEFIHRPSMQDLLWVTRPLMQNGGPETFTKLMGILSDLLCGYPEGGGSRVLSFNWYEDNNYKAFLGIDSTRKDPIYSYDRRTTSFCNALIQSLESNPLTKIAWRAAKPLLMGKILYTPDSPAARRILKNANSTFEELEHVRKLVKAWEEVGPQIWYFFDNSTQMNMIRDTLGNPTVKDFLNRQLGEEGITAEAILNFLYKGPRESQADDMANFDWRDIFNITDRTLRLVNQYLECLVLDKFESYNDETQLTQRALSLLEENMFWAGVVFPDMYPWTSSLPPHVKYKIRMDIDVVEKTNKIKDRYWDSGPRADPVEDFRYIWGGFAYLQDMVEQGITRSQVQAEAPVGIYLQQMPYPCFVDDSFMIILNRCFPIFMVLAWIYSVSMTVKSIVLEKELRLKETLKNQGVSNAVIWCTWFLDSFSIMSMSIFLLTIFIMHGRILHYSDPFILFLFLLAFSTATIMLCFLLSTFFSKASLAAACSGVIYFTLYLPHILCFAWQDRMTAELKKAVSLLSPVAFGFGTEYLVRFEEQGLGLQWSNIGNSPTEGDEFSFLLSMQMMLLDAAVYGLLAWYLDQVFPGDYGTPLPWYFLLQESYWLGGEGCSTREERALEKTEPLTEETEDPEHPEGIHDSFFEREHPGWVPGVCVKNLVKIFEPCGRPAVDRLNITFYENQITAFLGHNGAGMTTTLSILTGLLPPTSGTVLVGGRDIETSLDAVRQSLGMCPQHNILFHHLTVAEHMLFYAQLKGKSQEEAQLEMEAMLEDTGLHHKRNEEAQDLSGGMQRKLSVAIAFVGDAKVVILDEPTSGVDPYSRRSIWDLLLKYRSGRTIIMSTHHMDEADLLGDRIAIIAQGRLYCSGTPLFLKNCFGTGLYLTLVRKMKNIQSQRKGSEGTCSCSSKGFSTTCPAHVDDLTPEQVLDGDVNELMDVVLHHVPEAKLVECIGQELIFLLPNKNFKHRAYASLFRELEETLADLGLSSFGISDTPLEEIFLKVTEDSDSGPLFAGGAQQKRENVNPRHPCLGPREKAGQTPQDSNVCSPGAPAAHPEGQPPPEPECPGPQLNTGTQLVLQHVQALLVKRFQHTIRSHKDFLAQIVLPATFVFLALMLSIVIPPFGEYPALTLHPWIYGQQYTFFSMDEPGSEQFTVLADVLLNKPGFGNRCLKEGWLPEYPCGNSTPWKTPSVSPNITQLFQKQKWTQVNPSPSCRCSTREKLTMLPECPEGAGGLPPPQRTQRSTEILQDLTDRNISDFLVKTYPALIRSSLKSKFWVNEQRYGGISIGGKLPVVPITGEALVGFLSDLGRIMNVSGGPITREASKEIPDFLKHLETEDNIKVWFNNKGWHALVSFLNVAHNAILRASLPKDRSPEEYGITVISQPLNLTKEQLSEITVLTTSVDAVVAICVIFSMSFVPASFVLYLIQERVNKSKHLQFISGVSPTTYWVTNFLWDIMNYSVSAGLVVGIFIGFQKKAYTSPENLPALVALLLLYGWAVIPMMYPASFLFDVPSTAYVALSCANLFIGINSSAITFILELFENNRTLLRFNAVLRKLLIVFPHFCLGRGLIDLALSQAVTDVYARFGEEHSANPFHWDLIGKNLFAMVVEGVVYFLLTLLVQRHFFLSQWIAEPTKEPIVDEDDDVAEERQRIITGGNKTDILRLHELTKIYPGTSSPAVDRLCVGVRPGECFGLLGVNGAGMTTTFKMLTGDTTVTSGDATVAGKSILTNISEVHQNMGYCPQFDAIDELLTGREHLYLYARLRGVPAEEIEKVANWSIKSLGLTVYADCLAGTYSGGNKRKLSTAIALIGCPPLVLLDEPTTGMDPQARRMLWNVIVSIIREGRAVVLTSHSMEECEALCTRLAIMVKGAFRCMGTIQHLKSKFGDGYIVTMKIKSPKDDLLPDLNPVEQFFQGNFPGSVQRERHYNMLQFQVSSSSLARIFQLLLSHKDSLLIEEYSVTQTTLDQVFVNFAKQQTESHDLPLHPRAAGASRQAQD

Which “retinal activation of ATPase activity” value does the source give for `CC1=C(/C=C/C(C)=C/C=C/C(C)=C/C=O)C(C)(C)CCC1` [all-trans retinal] here?
Its value is “abolished retinal activation”.
